{
  "source": "patent US9896659B2",
  "about": "“Methods, kits, and compositions for stem cell self-renewal” (STOWERS INSTITUTE FOR MEDICAL RESEARCH, priority 2011, dated 2018)",
  "key": {"LSK Flk2^− cells [1]": {"tested_on": "LSK Flk2^− cells", "assay": "10-day culture of bone marrow MNCs with PI3K inhibitor, CHIR99021 or without insulin, expansion of LSK Flk2^− cells", "assay_type": "cell-based, mouse"}, "LSK Flk2^− cells [2]": {"tested_on": "LSK Flk2^− cells", "assay": "14-day ex vivo expansion of bone marrow MNCs in ST media with or without GSK3β inhibitor, FACS", "assay_type": "cell-based, mouse", "details": "Tpo or SCF alone; data not shown"}, "NSG recipients": {"tested_on": "NSG recipients", "assay": "Repopulation of NSG recipients by cultured human UCB cells", "assay_type": "in vivo", "details": "STL media + 15 nM Decitabine, brief exposure; 12 weeks post-secondary transplant", "procedure": "600 HSCs (lineage negative, CD34^+, CD38^− cells) were sorted from human UCB and transplanted into sub-lethally irradiated (3.25 Gy) NSG recipients or cultured for 2 weeks in STL media prior to transplantation. MNCs containing 600 HSCs were also cultured equivalently and transplanted. The uncultured MNC group is not shown due to morbidity of transplant recipients.\nMNCs were isolated from human UCB and cultured in STL media or STL media with the DNA methyltransferase inhibitor (DNMTi), Decitabine, added at the concentration of 15 nM. DNMTi was prepared fresh in DMSO and added 12 hours after the start of the culture. Media containing Decitabine was replaced with freshly prepared media every 24 hours two more times. 72 hours after adding Decitabine initially, Decitabine was removed from the culture.\nFor the transplant experiments, MNCs isolated from human UCB were cultured in media activating the PI3K/Akt pathway (ST media), ST media with StemRegenin1 (SR1), media activating both the PI3K/Akt and Wnt/β-catenin pathways (STL media), or STL media+DNMTi for 14 days. The cultured progeny of 2×10^5 MNCs per recipient were transplanted into sub-lethally irradiated (3.25 Gy) NSG recipients. […] 12 weeks post-secondary transplant, human donor cells repopulation was determined (FIG. 36B)."}, "[3]": {"tested_on": "Lin^−, CD34^+, CD38^− cells", "assay": "Long-term ex vivo culture of human umbilical cord blood MNCs, Lin^− CD34^+ CD38^− cells by flow cytometry", "assay_type": "cell-based", "details": "6 weeks culture in STL media; 500 nM 5-Aza-2′-deoxycytidine or 1 μM SR1; relative to STL base media", "procedure": "Cells were cultured in STL media, which consists of the following: StemSpan SFEM media (Stem Cell Technologies, Vancouver, Canada) supplemented with 10 μg/ml heparin (Sigma, St. Louis, Mo.), 0.5× Penicillin/Streptomycin (Sigma, St. Louis, Mo.), 10 ng/ml recombinant human (rh) SCF, 20 ng/ml rh-Tpo (Biovision, Inc., Mountain View, Calif.), and 2 mM lithium chloride (LiCl).\nMononuclear cells (MNCs) were isolated from human umbilical cord blood (UCB) and cultured in STL media (activating both Wnt/β-catenin and PI3K/Akt signaling), STL+StemRegenin1 (SR1), or STL+DNMT inhibitor (DNMTi) and analyzed by flow cytometry. […] 1 μM SR1 (Cellagen Technologies, San Diego, Calif.) or 500 nM of DNMTi (5-Aza-2′-deoxycytidine, A3656, Sigma, St. Louis, Mo.) was added where indicated. DNMTi was prepared fresh in DMSO and added from the start of the culture. 24 hours later, about 75% of media was changed using fresh DNMT inhibitor. 60 hours after culture began, no additional DNMT inhibitor was added during media changes."}, "LSK Flk2^− cells [4]": {"tested_on": "LSK Flk2^− cells", "assay": "Ex vivo culture of sorted LSK Flk2^− cells with GSK-3β and PTEN inhibitors, expansion by FACS", "assay_type": "cell-based, mouse", "procedure": "LSK or LSK Flk2^− cells were sorted into 96-well U-bottom tissue culture plates at 100 cells/well with 200 μl media/well. Cells were incubated at 37° C., 5% O2, 5% CO2 (balance N2) for the indicated number of days. One-half total volume of media (see Table 1, below for the base media) was carefully pipetted from the top and replaced with fresh media every other day.\nOne hundred LSK Flk2^− cells were sorted from wild-type (C57Bl/6) mice and cultured in (1) media, (2) media+1 μM CHIR99021 (a GSK-3β inhibitor, a gift from Dr. Sheng Ding), (3) media+200 nM Dipotassium Bis-peroxo(picolinato)oxovanadate (BpV(pic), a PTEN inhibitor, available from Calbiochem, Cat. No. 203705), (4) media+1 μM CHIR99021+200 nM BpV(pic), (5) media+200 nM Shikonin (also a PTEN inhibitor, available from Calbiochem, Cat. No. 565850), and (6) media+200 nM Shikonin+1 μM CHIR99021. (FIGS. 3B-C). Cells were cultured as described above. Cells were examined at 17 days of culture (FIG. 3B, original magnification 100×) and 23 days (FIG. 3C, original magnification 40×).\nLSK Flk2^− cells at 28 days culture in the indicated media conditions were examined (FIG. 3D, original magnification 200×).\nFACS analysis of 28 day LSK Flk2^− cells cultured in media+BpV(pic)+CHIR99021 (FIG. 3E) was performed. Cells were pre-gated on live, lineage negative cells.\nFold expansion of LSK Flk2^− cells after 28 days culture in (1) media, (2) media+BpV(pic), (3) media+CHIR99021, and (4) media+CHIR99021+BpV(pic) were analyzed.\nCells cultured for 9 days in (1) media, (2) media+BpV(pic) (200 nM), (3) media+CHIR99021 (100 nM), and (4) media+CHIR99021 (100 nM)+BpV(pic) (200 nM) were re-sorted for LSK Flk2^− cells, and fold expansion of LSK Flk2^− cells after 9 days culture in the indicated conditions was determined (FIG. 3I).\nFACS analysis was performed on 9 day LSK Flk2^− cells cultured in media+BpV(pic) (200 nM)+CHIR99021 (100 nM) (FIG. 3J). Cells were pre-gated on live, lineage negative cells."}, "[5]": {"tested_on": "lethally irradiated (10 Gy) CD45.1^+ recipient mice", "assay": "Transplantation of cultured sorted LSK Flk2^− cells into lethally irradiated recipients, donor engraftment", "assay_type": "in vivo, mouse", "details": "28-day cultures, 1000 re-sorted LSK Flk2^− cells + 2×10^5 competitor cells; peripheral blood 4 weeks post-transplant", "excerpt": "Cells were harvested from the wells prior to transplantation by pipetting up and down several times before transferring to a fresh tube. Residual was then collected by adding more media and repeating. Cells were washed in DMEM (Invitrogen, Cat. No. 31053) without phenol red and added to the appropriate number of whole bone marrow rescue cells from a congenic donor (for 200,000 rescue cells+1,000 re-sorted LSK Flk2^− cells (FIGS. 3F-H) or the non-adherent product of 10 days culture of 100 LSK Flk2^− cultured cells (FIGS. 3I-K) per mouse as indicated). […]\nRepopulation was measured at 4 weeks post-transplant by collection of peripheral blood, red blood cell lysis, and staining of CD45.1 (recipient) compared to CD45.2 (donor) engraftment using antibodies purchased from eBiosciences (FITC conjugated CD45.2 (Cat. No. 11-0454-85) and PE-Cy5 conjugated CD45.1 (Cat. No. 15-0453-82)). […] Multi-lineage reconstitution was determined by CD3, B220 (for lymphoid) and Gr1, Mac-1 (for myeloid), as described above.\nCells cultured for 28 days in (1) media, (2) media+BpV(pic), (3) media+CHIR99021 and (4) media+CHIR99021 (1 μM)+BpV(pic) (200 nM) were re-sorted for LSK Flk2^− cells. […] At 4 weeks post-transplant, peripheral blood was analyzed for donor (FIG. 3G) and multi-lineage (FIG. 3H) engraftment. […]"}},
  "data": [
    {"molecule": "insulin: recombinant human insulin in StemSpan media, a major stimulator of the PI3K/Akt pathway", "values": [
      {"measurement": "Dependence of phenotypic HSC expansion on medium component", "setting": "LSK Flk2^− cells [1]; ST media with or without insulin, 10 days", "result": "expansion of phenotypic HSCs is dependent on insulin"}
    ]},
    {"molecule": "Tpo: recombinant Thrombopoietin, cytokine", "values": [
      {"measurement": "HSC expansion with a single cytokine alone", "setting": "LSK Flk2^− cells [2]", "result": "could not expand HSCs in culture"}
    ]},
    {"molecule": "Nc1ncn([C@H]2C[C@H](O)[C@@H](CO)O2)c(=O)n1", "note": "[Decitabine, 5-Aza-2′-deoxycytidine]", "values": [
      {"measurement": "Expansion of functional, primitive human HSCs in serial transplant recipients", "setting": "NSG recipients", "result": "further enhanced"},
      {"measurement": "Human UCB-derived HSC expansion in long-term ex vivo culture", "setting": "[3]", "result": "human UCB-derived HSC expansion is enhanced"}
    ]},
    {"molecule": "Dipotassium Bis-peroxo(picolinato)oxovanadate [BpV(pic)]", "values": [
      {"measurement": "Expansion of LSK cells compared to control (photographs)", "setting": "LSK Flk2^− cells [4]; 17 and 23 days culture, 1 μM CHIR99021, 200 nM BpV(pic)", "result": "greater expansion of LSK cells"},
      {"measurement": "Expansion of LSK Flk2^− cells compared to media without inhibitor", "setting": "LSK Flk2^− cells [4]; 28 days culture", "result": "significant expansion"},
      {"measurement": "Mice showing >1% engraftment", "setting": "[5]", "result": "0/10"}
    ]},
    {"molecule": "SCF: recombinant Stem Cell Factor, cytokine", "values": [
      {"measurement": "HSC expansion with a single cytokine alone", "setting": "LSK Flk2^− cells [2]", "result": "could not expand HSCs in culture"}
    ]},
    {"molecule": "Cn1c(=O)n(-c2ccc(C(C)(C)C#N)cc2)c2c3cc(-c4cnc5ccccc5c4)ccc3ncc21", "note": "[NVP-BEZ235]", "values": [
      {"measurement": "Effect on the ability of CHIR99021 to enhance expansion", "setting": "LSK Flk2^− cells [1]; 10 days culture with 250 nM CHIR99021 plus PI3K inhibitor", "result": "ability of CHIR99021 to enhance expansion was negated by PI3K inhibition"},
      {"measurement": "Expansion of LSK Flk2^− cells", "setting": "LSK Flk2^− cells [1]; 10 days culture, 250 nM CHIR99021, NVP-BEZ235 at indicated concentrations", "result": "decreased the ability of LSK Flk2^− cells to expand in a dose-dependent manner"}
    ]},
    {"molecule": "CC(C)n1cnc2c(NCCc3ccc(O)cc3)nc(-c3csc4ccccc34)nc21", "note": "[SR1]", "values": [
      {"measurement": "Human UCB-derived HSC expansion in long-term ex vivo culture", "setting": "[3]", "result": "did not enhance overall HSC expansion in long-term cultures"}
    ]}
  ]
}
